We go through 38 compounds from patent publication US20240092774A1, “HETEROAROMATIC COMPOUNDS AND USES THEREOF” (HUTCHISON MEDIPHARMA LIMITED, priority 2020, published 2024).

Structures are written as SMILES.

As usually defined, the IC50 is the concentration that gives 50% inhibition.

In assay [1] the target is Recombinant human CSF1R kinase (Homo sapiens (Human), UniProt P07333). The assay is described as follows: Measurement of CSF1R kinase activity at molecular level (Z-LYTE). The format is biochemical. Particulars: Z-LYTE Tyr 1 peptide. How it is done:
Invitrogen, PV3227; • Development reagent B: Invitrogen, PV3295; • Development buffer: Invitrogen. P3127; • Stopping solution: Invitrogen, P3094; • Recombinant human CSF1R kinase: Invitrogen, P[…]; • 384 well plate, black: Corning. 3575; • Envision: Perkin Elmer. 2. […] The test compound was diluted in gradient to 4-fold the reaction concentration and the concentration of DMSO was kept at 8%. […] The mixture was mixed gently with a pipette. • 4) A phosphorylated peptide substrate solution (PP solution): 0.4 μL of Z-LYTETM Tyr1 phosphorylated peptide substrate was added to 99.6 μl of 1.33× kinase buffer. • 5) ATP solution: 10 mM of ATP was diluted to 760 μM with 1.33× kinase buffer to prepare ATP solution. • 6) Development solution: Development reagent B was diluted with Development buffer at a ratio of 1:200. 3. […] 2.5 μL of 4× test compound was added to each reaction well of the 384 plate, and the corresponding volume of 8% DMSO was added to the control well. The plate was placed on ice. […] After adding the reaction components, the 384-well plate was sealed and incubated at 25-30° C. for 1 h in dark. 2) Development Reaction 5 μL of Development solution was added to each well, sealed and incubated at 25-30° C. for another 1 h in dark. 3) Reaction Stopping and Plate Reading 5 μL of stopping solution was added to each well. The Coumarin value (excitation at 400 nm, emission at 445 nm) and Fluorescein value (excitation at 400 nm, emission at 520 nm) were measured, respectively. 4. […] Coumarin emission read-out (445 nm)/Fluorescein emission read-out (520 nm); • C3 445 nm: 100% phosphorylated Coumarin emission read-out; • C3 520 nm: 100% phosphorylated Fluorescein emission read-out; • C1 445 nm: 0% phosphorylated Coumarin emission read-out; • C1 520 nm: 0% phosphorylated Fluorescein emission read-out. […] 5. IC50 values: calculated by using software XL-FitTM (version 5.3) supplied by ID Business Solutions (Guildford, UK), which is an additional software to Microsoft Excel.

Assay [2] has as its target CSF1R phosphorylation in THP-1 cells (Homo sapiens (Human), UniProt P07333). The assay is described as follows: Detection of CSF1R phosphorylation activity at cell level (p-CSF1R ELISA, M-CSF stimulated THP-1 cells). In kind it is cell-based. Particulars: THP-1 cells, M-CSF stimulation, p-CSF1R ELISA; read-out: IC50. How it is done: THP-1 (ATCC), human acute monocytic leukemia cells.
3. Treatment of cells and preparation of lysis buffer
5 μL. of the diluted compound was added to the 50 μL cell culture system, the culture was cultured in a 5% CO2, 37° C. cell incubator for 60 min, 300 ng/mL of M-CSF was added to the cells, and the mixture was stimulated in the 37° C. cell incubator for 1 min, added 50 μL of cell lysis buffer, and stored in a refrigerator at −80° C.
100 μL/well of the p-CSF1R capture antibody diluted to 0.8 μg/mL with PBS was added to the ELISA plate, and the plate was coated on a shaker at room temperature overnight. The culture was washed with PBST, and then added blocking solution and incubated at room temperature for 2 h. The culture was washed with PBST, added 90 μL of cell lysis buffer, and incubated on a shaker at 25° C. for 2 h. The plate was washed with PBST three times, added 100 μL of anti-p-tyrosine-HRP detection antibody diluted with 0.1% PBS-BSA diluent, and incubated on a shaker at 25° C. for 2 h. The plate was washed with PBST washing liquid, added 100 μL of chromogenic substrate and incubated at room temperature for 10-20 min. The reaction was stopped by adding 50 μL of 2N H2SO4. The optical density signal (450/570 nm) of each well was detected in Labsystems Multiskan K3 or Envision.
wherein • Drug-treated well read-out: indicating the optical density signal of a cell well with the test compound treatment. • Background read-out: indicating the optical density signal of a well without cells but with cell lysis buffer. • Cell well read-out: indicating the optical density signal of a cell well not treated with the compound.
6. Calculation of IC50: obtained by using XL-Fit 5.3 software, […]
A general note: An ELISA detects its analyte on a solid surface through an enzyme-linked reagent.

Recombinant human CSF1R kinase, sequence (P07333 20-972): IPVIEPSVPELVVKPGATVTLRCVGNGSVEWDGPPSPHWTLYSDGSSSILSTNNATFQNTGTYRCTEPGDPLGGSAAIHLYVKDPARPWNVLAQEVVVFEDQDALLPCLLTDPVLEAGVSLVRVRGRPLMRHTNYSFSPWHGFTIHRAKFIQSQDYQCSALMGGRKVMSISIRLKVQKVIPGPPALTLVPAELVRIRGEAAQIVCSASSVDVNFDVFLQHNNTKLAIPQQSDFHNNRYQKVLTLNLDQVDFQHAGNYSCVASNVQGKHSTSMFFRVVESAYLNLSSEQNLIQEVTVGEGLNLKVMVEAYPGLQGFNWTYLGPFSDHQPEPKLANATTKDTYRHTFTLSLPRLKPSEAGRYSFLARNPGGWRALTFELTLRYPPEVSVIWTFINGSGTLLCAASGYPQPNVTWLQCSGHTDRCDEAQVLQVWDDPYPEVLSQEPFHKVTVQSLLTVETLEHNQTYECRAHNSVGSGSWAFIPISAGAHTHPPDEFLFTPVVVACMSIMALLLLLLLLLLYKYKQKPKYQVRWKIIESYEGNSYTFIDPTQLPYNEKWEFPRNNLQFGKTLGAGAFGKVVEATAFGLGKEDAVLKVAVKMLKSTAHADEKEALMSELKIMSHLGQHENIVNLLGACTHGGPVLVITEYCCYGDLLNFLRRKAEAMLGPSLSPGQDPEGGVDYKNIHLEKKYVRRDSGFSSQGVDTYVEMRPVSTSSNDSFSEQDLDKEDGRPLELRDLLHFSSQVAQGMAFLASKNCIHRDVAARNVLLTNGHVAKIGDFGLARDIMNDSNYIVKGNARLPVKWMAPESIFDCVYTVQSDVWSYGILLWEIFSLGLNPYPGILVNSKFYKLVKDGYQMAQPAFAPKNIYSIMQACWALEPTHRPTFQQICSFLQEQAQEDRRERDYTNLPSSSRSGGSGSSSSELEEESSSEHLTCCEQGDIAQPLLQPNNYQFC
CSF1R phosphorylation in THP-1 cells, sequence (P07333 20-972): as above

Take `COc1cc(Oc2ccc3ncc(C)c(=O)n3c2)cnc1OCc1ccc(C(C)(C)O)cc1` [Compound 27]: the IC50 in assay [1] was determined as 16 nM; in assay [2], 45 nM.
Consider `COc1ccc(COc2ncc(Oc3ccc4ncc(C)c(=O)n4c3)cn2)cc1` [Compound 29], for which the half-maximal inhibitory concentration (IC50) is 6 nM in assay [1] and 23 nM in assay [2].
On to `COc1cc(Oc2ccc3ncc(C)c(=O)n3c2)cnc1OCc1ccc(C2CC2)cc1` [Compound 21], for which the concentration for half-maximal inhibition (IC50) in assay [1] worked out at 13 nM; in assay [2], 8 nM.
Take `COc1ccc(COc2ncc(Oc3ccc4ncc(N)c(=O)n4c3)cc2OC)cc1` [Compound 32]: the 50% inhibitory concentration (IC50) in assay [1] is 3 nM; in assay [2], 4 nM.
Regarding `O=c1ccnc2ccc(Oc3cnc4c(c3)OCC(c3ccc(C5CC5)cc3)O4)cn12` (racemic) [Compound 55, (R/S)-7-((3-(4-cyclopropylphenyl)-2,3-dihydro-[1,4]dioxino[2,3-b]pyridin-7-yl)oxy)-4H-pyrido[1,2-a]pyrimidin-4-one], the concentration for half-maximal inhibition (IC50) was 8 nM in assay [1] and 7 nM in assay [2].
For the compound `COc1ccc([C@@H]2COc3cc(Oc4ccc5ncc(C)c(=O)n5c4)cnc3O2)cc1` [Compound 65], the IC50 is 5 nM in assay [1] and 10 nM in assay [2].
With `COc1cc(Oc2ccc3ncc(C)c(=O)n3c2)cnc1OCCc1ccccc1` [Compound 40], the IC50 in assay [1] came to 33 nM; in assay [2] it was 190 nM.
Consider `COc1ccc([C@@H]2COc3cc(Oc4ccc5nccc(=O)n5c4)cnc3O2)cc1` [Compound 63], for which the figures for the concentration for half-maximal inhibition (IC50) in assay [1] and in assay [2] were 5 nM and 18 nM, respectively.
As to `COc1ccc([C@H]2COc3cc(Oc4ccc5ncc(C)c(=O)n5c4)cnc3O2)cc1` [Compound 66], the figures for the half-inhibitory concentration (IC50) in assay [1] and in assay [2] were 10 nM and 56 nM, respectively.
Regarding `COc1ccc([C@H]2COc3cc(Oc4ccnc(-c5cnn(C)c5)c4)cnc3O2)cn1` [Compound 70], the values for the half-inhibitory concentration (IC50) in assay [1] and in assay [2] were 8 nM and 15 nM, respectively.
On to `COc1ccc([C@H]2COc3cc(Oc4ccnc(-c5cnn(C)c5)c4)cnc3O2)cc1` [Compound 68], for which the concentration for half-maximal inhibition (IC50) in assay [1] worked out at 6 nM; in assay [2], 21 nM.
Regarding `Cn1cc(-c2cc(Oc3cnc4c(c3)OC[C@@H](c3ccc(C5CC5)cn3)O4)ccn2)cn1` [Compound 74], the IC50 is 5 nM in assay [1] and 9 nM in assay [2].
Regarding `COc1ccc(COc2ncc(Oc3ccc4ncc(C)c(=O)n4c3)cc2F)cc1` [Compound 20], the half-maximal inhibitory concentration (IC50) stood at 24 nM in assay [1] and 60 nM in assay [2].
For the compound `COc1cc(Oc2ccc3ncc(C)c(=O)n3c2)cnc1OCc1ccc(C2CC2F)cc1` (stereo not shown) [Compound 13], the values for the 50% inhibitory concentration (IC50) in assay [1] and in assay [2] were 8 nM and 17 nM, respectively.
`COc1cc(Oc2ccc3ncc(C)c(=O)n3c2)cnc1OCc1ccc(C(C)C)cc1` [Compound 8]: the IC50 was determined as 67 nM in assay [1] and 29 nM in assay [2].
The like results for `Cn1cc(-c2cc(Oc3cnc4c(c3)OCC(c3ccc(C5CC5)nc3)O4)ccn2)cn1` (racemic) [Compound 53, (R/S)-3-(6-cyclopropylpyridin-3-yl)-7-((2-(1-methyl-1H-pyrazol-4-yl)pyridin-4-yl)oxy)-2,3-dihydro-[1,4]dioxino[2,3-b]pyridine] were, in that order, 3 nM and 19 nM.
In the case of `Cc1cnc2ccc(Oc3cnc(OCc4ccc(C5CC5)cc4)c(OCF)c3)cn2c1=O` [Compound 14], the half-inhibitory concentration (IC50) amounted to 28 nM in assay [1] and 48 nM in assay [2].
`COc1cc(Oc2ccc3ncc(C)c(=O)n3c2)cnc1OCc1cccc(C(C)(C)C#N)c1` [Compound 10]: the half-maximal inhibitory concentration (IC50) in assay [1] is 44 nM; in assay [2], 80 nM.
`COc1ccc(COc2ncc(Oc3ccc4ncc(C)c(=O)n4c3)cc2C#N)cc1` [Compound 30]: the concentration for half-maximal inhibition (IC50) in assay [1] was 460 nM.
Turning to `COc1ccc([C@H]2COc3cc(Oc4ccc5ncc(C)c(=O)n5c4)cnc3O2)nc1` [Compound 79], the IC50 turned out to be 30 nM in assay [1] and 182 nM in assay [2].
Consider `Cn1cc(-c2cc(Oc3cnc4c(c3)OCC(c3ccc(C5CC5)cc3)O4)ccn2)cn1` (racemic) [Compound 48, (R/S)-3-(4-cyclopropylphenyl)-7-((2-(1-methyl-1H-pyrazol-4-yl)pyridin-4-yl)oxy)-2,3-dihydro-[1,4]dioxino[2,3-b]pyridine], for which the IC50 in assay [1] and in assay [2] was 5 nM in each case.
Take `COc1cc(Oc2ccc3ncc(C)c(=O)n3c2)cnc1OCc1ccc(-n2cccn2)cc1` [Compound 23]: the IC50 came out at 5 nM in assay [1] and 129 nM in assay [2].
Take `Cc1cnc2ccc(Oc3cnc4c(c3)OCC(c3ccc(C5CC5)cc3)O4)cn2c1=O` (stereo not shown) [Compound 45, 7-((3-(4-cyclopropylphenyl)-2,3-dihydro-[1,4]dioxino[2,3-b]pyrin-7-yl)oxy)-3-methyl-4H-pyrido[1,2-a]pyrimidin-4-one]: the figures for the half-inhibitory concentration (IC50) in assay [1] and in assay [2] were 36 nM and 61 nM, respectively.
As to `COc1cc(Oc2ccc3ncc(C)c(=O)n3c2)cnc1OCc1ccc(Cl)cc1` [Compound 19, 7-((6-((4-chlorobenzyl)oxy)-S-methoxypyridin-3-yl)oxy)-3-methyl-4H-pyrido[1,2-a]pyrimidin-4-one], the half-maximal inhibitory concentration (IC50) in assay [2] was 31 nM.
Take `COc1cc(Oc2ccc3ncc(C)c(=O)n3c2)cnc1OCc1ccccc1` [Compound 43]: the half-inhibitory concentration (IC50) in assay [1] was 4 nM; in assay [2], 54 nM.
On to `Cc1cnc2ccc(Oc3cnc4c(c3)OC[C@@H](c3ccc(C5CC5)cc3)O4)cn2c1=O` [Compound 57], for which the figures for the IC50 in assay [1] and in assay [2] were 15 nM and 16 nM, respectively.
The like results for `COc1cc(Oc2ccc3ncc(N)c(=O)n3c2)cnc1OCc1ccc(-n2cccn2)cc1` [Compound 24] were, in that order, 3 nM and 34 nM.
The like results for `Cc1cnc2ccc(Oc3cnc4c(c3)OC[C@@H](c3ccc(C5CC5)cn3)O4)cn2c1=O` [Compound 76] were, in that order, 8 nM and 18 nM.
For the compound `COc1cc(Oc2ccc3ncc(C)c(=O)n3c2)cnc1OCc1ccc(C(C)(C)C#N)cc1` [Compound 28], the IC50 in assay [1] was found to be 70 nM.
Turning to `COc1cc(Oc2ccc3ncc(C)c(=O)n3c2)cnc1OCc1ccc(C2CC2)c(F)c1` [Compound 9], the half-maximal inhibitory concentration (IC50) in assay [1] stood at 63 nM; in assay [2] it was 6 nM.
The like results for `COc1ccc([C@H]2COc3cc(Oc4ccc5nccc(=O)n5c4)cnc3O2)cc1` [Compound 64] were, in that order, 10 nM and 42 nM.
As for `COc1ccc(COc2ncc(Oc3ccc4ncc(N5CCOCC5)c(=O)n4c3)cc2OC)cc1` [Compound 31], the IC50 is 6 nM in assay [1] and 10 nM in assay [2].
For `Cc1cnc2ccc(Oc3ccc(OCc4ccc(F)cc4)nc3)cn2c1=O` [Compound 3], the 50% inhibitory concentration (IC50) in assay [1] came out at 81 nM.
As to `COc1ccc([C@H]2COc3cc(Oc4ccc5nccc(=O)n5c4)cnc3O2)nc1` [Compound 77], the IC50 in assay [1] came to 80 nM.
For the compound `COc1ccc(COc2ncc(Oc3ccc4ncc(N)c(=O)n4c3)cc2C)cc1` [Compound 33], the IC50 in assay [1] is 150 nM.
For `Cc1cnc2ccc(Oc3ccc(OCc4ccc(F)c(Cl)c4)nc3)cn2c1=O` [Compound 4], the IC50 in assay [1] was found to be 129 nM.
Consider `COc1ccc(COc2ncc(Oc3ccc4ncc(C)c(=O)n4c3)cc2C)cc1` [Compound 34], for which the half-maximal inhibitory concentration (IC50) in assay [1] amounted to 499 nM.
On the same count and under the same terms, for `C#Cc1ccc(COc2ncc(Oc3ccc4ncc(C)c(=O)n4c3)cc2OC)cc1` [Compound 7] the value was 15 nM.
